This is an account of results in US12685735B2 (Foghorn Therapeutics Inc., priority 2020, dated 2026).

What is called IC50 is the point on the concentration scale where inhibition reaches its midpoint.

One assay has as its target BRM (Homo sapiens, UniProt P51531). Kind of assay: ATPase catalytic activity assay of BRM (ADP-Glo). In kind it is biochemical. The settings on record: for IC50: read-out: BRM IC50 (μM)*. The procedure, abridged: (§1)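 Luminescent ADP-Glo readout of ADP generated by ATP hydrolysis. Post-reaction: ATP depletion reagent, RT 40 min; detection reagent converting ADP→ATP, RT 60 min; luminescence read.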
(ADP-Glo turns the ADP formed in a reaction into a luminescent signal.)

For a further assay, the target named is BRG-1 (Homo sapiens, UniProt P51532). Kind of assay: ATPase catalytic activity assay of BRG-1 (ADP-Glo). The assay is classed as biochemical. The settings on record: ATPase catalytic activity, ADP-Glo; for IC50: read-out: BRG1 IC50 (μM)*; for Emax: read-out: BRG1 Max % Inhibition. The procedure, abridged: as §1
Sequence of BRG-1 (P51532 whole entry): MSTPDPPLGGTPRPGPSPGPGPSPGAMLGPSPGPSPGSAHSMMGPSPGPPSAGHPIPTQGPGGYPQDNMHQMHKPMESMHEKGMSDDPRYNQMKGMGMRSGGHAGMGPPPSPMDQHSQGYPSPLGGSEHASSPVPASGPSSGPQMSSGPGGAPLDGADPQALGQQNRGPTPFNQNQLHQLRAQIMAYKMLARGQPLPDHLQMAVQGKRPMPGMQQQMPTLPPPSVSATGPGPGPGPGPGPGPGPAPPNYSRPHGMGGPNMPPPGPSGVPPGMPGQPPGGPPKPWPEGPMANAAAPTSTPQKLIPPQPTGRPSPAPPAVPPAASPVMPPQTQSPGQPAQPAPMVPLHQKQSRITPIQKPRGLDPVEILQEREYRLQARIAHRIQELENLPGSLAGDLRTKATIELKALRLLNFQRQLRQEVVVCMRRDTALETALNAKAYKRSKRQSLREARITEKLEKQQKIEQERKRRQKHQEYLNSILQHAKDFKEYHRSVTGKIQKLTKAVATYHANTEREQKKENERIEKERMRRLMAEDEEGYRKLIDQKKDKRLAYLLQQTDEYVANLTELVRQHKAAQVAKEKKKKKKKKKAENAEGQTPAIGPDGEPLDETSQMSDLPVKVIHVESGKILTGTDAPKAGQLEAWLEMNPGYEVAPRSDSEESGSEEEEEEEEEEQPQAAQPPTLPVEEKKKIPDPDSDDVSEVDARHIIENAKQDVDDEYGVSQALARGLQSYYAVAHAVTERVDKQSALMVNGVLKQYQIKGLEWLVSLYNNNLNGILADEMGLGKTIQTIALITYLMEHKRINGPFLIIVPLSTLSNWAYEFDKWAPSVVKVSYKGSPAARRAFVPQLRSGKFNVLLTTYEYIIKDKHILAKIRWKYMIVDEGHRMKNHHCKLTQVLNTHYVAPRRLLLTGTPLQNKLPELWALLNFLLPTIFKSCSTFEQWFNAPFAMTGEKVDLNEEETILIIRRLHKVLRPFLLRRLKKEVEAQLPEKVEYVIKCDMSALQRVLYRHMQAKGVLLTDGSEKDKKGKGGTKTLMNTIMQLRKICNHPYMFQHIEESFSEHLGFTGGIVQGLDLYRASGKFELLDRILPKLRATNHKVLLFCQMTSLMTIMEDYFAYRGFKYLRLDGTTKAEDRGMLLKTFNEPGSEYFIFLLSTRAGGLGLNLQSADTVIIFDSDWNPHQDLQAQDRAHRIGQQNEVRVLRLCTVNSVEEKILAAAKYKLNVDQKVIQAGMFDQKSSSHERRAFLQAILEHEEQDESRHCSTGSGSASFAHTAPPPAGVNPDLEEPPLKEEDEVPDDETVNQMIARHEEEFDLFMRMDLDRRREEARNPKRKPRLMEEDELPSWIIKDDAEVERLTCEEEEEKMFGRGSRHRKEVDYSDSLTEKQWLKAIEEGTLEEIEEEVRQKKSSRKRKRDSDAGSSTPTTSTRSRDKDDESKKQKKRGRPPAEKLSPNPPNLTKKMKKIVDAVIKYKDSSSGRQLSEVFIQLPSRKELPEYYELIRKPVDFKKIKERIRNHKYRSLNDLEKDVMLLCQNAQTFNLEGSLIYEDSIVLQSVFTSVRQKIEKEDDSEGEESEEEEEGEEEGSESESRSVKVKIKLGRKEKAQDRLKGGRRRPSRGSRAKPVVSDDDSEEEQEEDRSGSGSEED

Sequence of BRM (P51531 whole entry): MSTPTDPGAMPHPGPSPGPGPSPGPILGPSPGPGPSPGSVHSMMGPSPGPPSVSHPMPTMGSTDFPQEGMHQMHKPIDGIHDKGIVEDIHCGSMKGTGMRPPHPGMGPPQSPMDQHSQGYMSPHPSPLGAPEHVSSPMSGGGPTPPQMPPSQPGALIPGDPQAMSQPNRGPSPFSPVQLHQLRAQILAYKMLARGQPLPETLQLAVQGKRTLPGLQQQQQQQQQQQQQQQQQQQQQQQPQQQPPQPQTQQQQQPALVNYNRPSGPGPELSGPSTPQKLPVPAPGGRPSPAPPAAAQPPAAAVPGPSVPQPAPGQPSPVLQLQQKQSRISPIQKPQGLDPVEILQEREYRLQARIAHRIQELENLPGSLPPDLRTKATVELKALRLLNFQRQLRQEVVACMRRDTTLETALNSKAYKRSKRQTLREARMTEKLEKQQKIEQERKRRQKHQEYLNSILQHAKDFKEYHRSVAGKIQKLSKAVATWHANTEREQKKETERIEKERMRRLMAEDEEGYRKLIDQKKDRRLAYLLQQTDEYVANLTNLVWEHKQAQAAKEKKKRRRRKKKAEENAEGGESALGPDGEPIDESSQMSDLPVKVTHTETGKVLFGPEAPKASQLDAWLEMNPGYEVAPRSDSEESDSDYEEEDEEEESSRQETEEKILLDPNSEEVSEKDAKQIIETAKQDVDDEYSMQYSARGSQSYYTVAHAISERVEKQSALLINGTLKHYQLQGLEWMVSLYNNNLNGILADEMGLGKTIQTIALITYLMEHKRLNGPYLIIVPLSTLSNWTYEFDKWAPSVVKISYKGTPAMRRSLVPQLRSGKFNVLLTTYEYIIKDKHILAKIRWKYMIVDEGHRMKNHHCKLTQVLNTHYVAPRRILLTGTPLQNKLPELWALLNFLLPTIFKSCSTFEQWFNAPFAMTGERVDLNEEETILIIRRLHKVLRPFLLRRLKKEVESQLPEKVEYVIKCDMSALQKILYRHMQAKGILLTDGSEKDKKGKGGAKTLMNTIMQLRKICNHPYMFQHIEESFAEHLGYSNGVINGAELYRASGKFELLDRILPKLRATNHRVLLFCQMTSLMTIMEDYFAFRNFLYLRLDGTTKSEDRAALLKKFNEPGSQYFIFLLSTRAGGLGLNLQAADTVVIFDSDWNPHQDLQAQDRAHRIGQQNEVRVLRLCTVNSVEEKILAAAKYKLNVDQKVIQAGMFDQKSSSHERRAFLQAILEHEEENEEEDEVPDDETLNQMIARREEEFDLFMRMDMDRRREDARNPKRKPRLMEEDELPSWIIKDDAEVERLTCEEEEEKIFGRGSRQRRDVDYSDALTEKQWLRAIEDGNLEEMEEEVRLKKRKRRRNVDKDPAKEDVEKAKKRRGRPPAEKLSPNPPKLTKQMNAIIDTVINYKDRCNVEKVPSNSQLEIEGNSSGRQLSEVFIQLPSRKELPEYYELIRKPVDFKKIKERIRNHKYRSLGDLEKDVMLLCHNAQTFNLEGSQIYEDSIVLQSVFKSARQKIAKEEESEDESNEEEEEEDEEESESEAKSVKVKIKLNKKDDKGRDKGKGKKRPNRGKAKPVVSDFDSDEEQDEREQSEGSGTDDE

With `COC(=O)N1CCC(c2csc(NC(=O)CNC(=O)c3ccc4c(c3)[C@](C)(F)COC4)n2)CC1` [Compound 281, methyl (S)-4-(2-(2-(4-fluoro-4-methylisochromane-6-carboxamido)acetamido)thiazol-4-yl)piperidine-1-carboxylate], at BRM, the “BRM Max % Inhibition” value was more than 90% and the IC50 lay within 0.1 to 1 µM. Moreover, on BRG-1, the 50% inhibitory concentration (IC50) is 1 to 5 µM and the Emax was more than 90%.

With `C[C@@H]1CN(c2cccc(-c3csc(NC(=O)CNC(=O)c4ccc5c(c4)C(C)(C)COC5)n3)n2)C[C@H](C)O1` [Compound 282, N-(2-((4-(6-((cis)-2,6-dimethylmorpholino)pyridin-2-yl)thiazol-2-yl)amino)-2-oxoethyl)-4,4-dimethylisochromane-6-carboxamide], at BRM, the “BRM Max % Inhibition” value is more than 95% and the half-maximal inhibitory concentration (IC50) is less than 0.1 µM. For the same compound, at BRG-1, the IC50 lay within 0.1 to 1 µM and the Emax is more than 95%.

`C[C@@H]1CN(c2cccc(-c3csc(NC(=O)CNC(=O)c4cccc([C@]5(C(F)F)CCOC5)c4)n3)c2)C[C@H](C)O1` [Compound 285]: at BRM, the “BRM Max % Inhibition” value is more than 95% and the IC50 was less than 0.1 µM. In addition, at BRG-1, the IC50 is 0.1 to 1 µM and the Emax is more than 95%.

As to `C[C@@H]1CN(c2cccc(-c3csc(NC(=O)CNC(=O)c4cccc([C@@]5(C(F)F)CCOC5)c4)n3)c2)C[C@H](C)O1` [Compound 286, 3-((S)-3-(difluoromethyl)tetrahydrofuran-3-yl)-N-(2-((4-(3-((cis)-2,6-dimethylmorpholino)phenyl)thiazol-2-yl)amino)-2-oxoethyl)benzamide], on BRM, the “BRM Max % Inhibition” value is listed as more than 95% and the IC50 is less than 0.1 µM. At BRG-1, the IC50 lay within 1 to 5 µM and the Emax was more than 95%.

On to `CN1C[C@](C)(C#N)c2cc(C(=O)NCC(=O)Nc3nc(-c4cc(F)cc(N5CCC5)c4)cs3)ccc21` [Compound 288, (R)-N-(2-((4-(3-(azetidin-1-yl)-5-fluorophenyl)thiazol-2-yl)amino)-2-oxoethyl)-3-cyano-1,3-dimethylindoline-5-carboxamide], for which, on BRM, the “BRM Max % Inhibition” value is more than 75% and the IC50 is 0.1 to 1 µM. Also, on BRG-1, the 50% inhibitory concentration (IC50) is more than 5 µM and the Emax is more than 75%.

`CN1C[C@@](C)(C#N)c2cc(C(=O)NCC(=O)Nc3nc(-c4cc(F)cc(N5CCC5)c4)cs3)ccc21` [Compound 289, (S)-N-(2-((4-(3-(azetidin-1-yl)-5-fluorophenyl)thiazol-2-yl)amino)-2-oxoethyl)-3-cyano-1,3-dimethylindoline-5-carboxamide]: on BRM, the “BRM Max % Inhibition” value is given as more than 95% and the half-maximal inhibitory concentration (IC50) was less than 0.1 µM. On BRG-1, the half-inhibitory concentration (IC50) is less than 0.1 µM and the Emax is more than 95%.

For the compound `C[C@@H]1CN(c2cccc(-c3csc(NC(=O)CNC(=O)c4cccc([C@]5(C(F)F)CCCO5)c4)n3)c2)C[C@H](C)O1` [Compound 291, 3-((S)-2-(difluoromethyl)tetrahydrofuran-2-yl)-N-(2-((4-(3-((cis)-2,6-dimethylmorpholino)phenyl)thiazol-2-yl)amino)-2-oxoethyl)benzamide], at BRM, the “BRM Max % Inhibition” value is reported as more than 90% and the IC50 lay in the range of 0.1 to 1 µM. Besides, at BRG-1, the half-maximal inhibitory concentration (IC50) is more than 5 µM and the Emax is more than 90%.

For `C[C@@]1(C#N)COCc2ccc(C(=O)NCC(=O)Nc3nc(-c4cccc([C@@]56CCOC[C@@H]5C6)n4)cs3)cc21` [Compound 292, (R)-N-(2-((4-(6-((1R,6S)-3-oxabicyclo[4.1.0]heptan-6-yl)pyridin-2-yl)thiazol-2-yl)amino)-2-oxoethyl)-4-cyano-4-methylisochromane-6-carboxamide], on BRM, the “BRM Max % Inhibition” value is reported as more than 95% and the IC50 is less than 0.1 µM. Further, on BRG-1, the IC50 lay in the range of 0.1 to 1 µM and the Emax was more than 95%.

For the compound `C[C@@]1(C#N)COCc2ccc(C(=O)NCC(=O)Nc3nc(-c4cccc([C@]56CCOC[C@H]5C6)n4)cs3)cc21` [Compound 293, (R)-N-(2-((4-(6-((1S,6R)-3-oxabicyclo[4.1.0]heptan-6-yl)pyridin-2-yl)thiazol-2-yl)amino)-2-oxoethyl)-4-cyano-4-methylisochromane-6-carboxamide], at BRM, the “BRM Max % Inhibition” value is reported as more than 95% and the IC50 is less than 0.1 µM. Also, at BRG-1, the IC50 fell in the range of 0.1 to 1 µM and the Emax was more than 95%.

For the compound `C[C@@]1(C#N)COCc2ccc(C(=O)NCC(=O)Nc3nc(-c4cccc([C@@]56CCOC[C@@H]5C6)c4)cs3)cc21` [Compound 294, (R)-N-(2-((4-(3-((1R,6S)-3-oxabicyclo[4.1.0]heptan-6-yl)phenyl)thiazol-2-yl)amino)-2-oxoethyl)-4-cyano-4-methylisochromane-6-carboxamide], on BRM, the “BRM Max % Inhibition” value is recorded as more than 95% and the IC50 is less than 0.1 µM. Moreover, on BRG-1, the IC50 lay in the range of 0.1 to 1 µM and the Emax is more than 95%.

`C[C@@]1(C#N)COCc2ccc(C(=O)NCC(=O)Nc3nc(-c4cccc([C@]56CCOC[C@H]5C6)c4)cs3)cc21` [Compound 295, (R)-N-(2-((4-(3-((1S,6R)-3-oxabicyclo[4.1.0]heptan-6-yl)phenyl)thiazol-2-yl)amino)-2-oxoethyl)-4-cyano-4-methylisochromane-6-carboxamide]: on BRM, the “BRM Max % Inhibition” value was more than 95% and the IC50 is less than 0.1 µM. Also, on BRG-1, the IC50 is 0.1 to 1 µM and the Emax is more than 95%.

Regarding `C[C@@H]1CN(c2cccc(-c3csc(NC(=O)CNC(=O)c4ccc5c(c4)CCCOC5)n3)n2)C[C@H](C)O1` [Compound 296, N-(2-((4-(6-((cis)-2,6-dimethylmorpholino)pyridin-2-yl)thiazol-2-yl)amino)-2-oxoethyl)-1,3,4,5-tetrahydrobenzo[c]oxepine-7-carboxamide], on BRM, the “BRM Max % Inhibition” value was more than 95% and the IC50 was less than 0.1 µM. For the same compound, on BRG-1, the IC50 is less than 0.1 µM and the Emax is more than 95%.

In the case of `C[C@@]1(F)COCc2ccc(C(=O)NCC(=O)Nc3nc(C4CCOCC4)cs3)cc21` [Compound 297, (S)-4-fluoro-4-methyl-N-(2-oxo-2-((4-(tetrahydro-2H-pyran-4-yl)thiazol-2-yl)amino)ethyl)isochromane-6-carboxamide], on BRM, the “BRM Max % Inhibition” value is listed as more than 95% and the IC50 lay in the range of 0.1 to 1 µM. On BRG-1, the IC50 lay within 1 to 5 µM and the Emax was more than 85%.

Turning to `C[C@@H]1CN(c2cccc(-c3csc(NC(=O)CNC(=O)c4ccc5c(c4)C4(COC5)COC4)n3)n2)C[C@H](C)O1` [Compound 300, N-(2-((4-(6-((cis)-2,6-dimethylmorpholino)pyridin-2-yl)thiazol-2-yl)amino)-2-oxoethyl)spiro[isochromane-4,3′-oxetane]-6-carboxamide], on BRM, the “BRM Max % Inhibition” value is given as more than 95% and the IC50 was less than 0.1 µM. For the same compound, on BRG-1, the IC50 is 0.1 to 1 µM and the Emax is more than 95%.

As for `C[C@@]1(F)COCc2ccc(C(=O)NCC(=O)Nc3nc(-c4ccccc4)cs3)cc21` [Compound 303, (S)-4-fluoro-4-methyl-N-(2-oxo-2-((4-phenylthiazol-2-yl)amino)ethyl)isochromane-6-carboxamide], at BRM, the “BRM Max % Inhibition” value is given as more than 95% and the IC50 was less than 0.1 µM. Besides, on BRG-1, the IC50 was 0.1 to 1 µM and the Emax was more than 95%.

On to `C[C@@H]1CN(c2cccc(-c3csc(NC(=O)CNC(=O)c4cccc(C5(F)COCC5O)c4)n3)n2)C[C@H](C)O1` (stereo partly drawn) [Compound 304, N-(2-((4-(6-((cis)-2,6-dimethylmorpholino)pyridin-2-yl)thiazol-2-yl)amino)-2-oxoethyl)-3-(3-fluoro-4-hydroxytetrahydrofuran-3-yl)benzamide], for which, on BRM, the “BRM Max % Inhibition” value is on record as more than 95% and the 50% inhibitory concentration (IC50) is 0.1 to 1 µM. At BRG-1, the IC50 lay within 1 to 5 µM and the Emax was more than 95%.

`C[C@@]1(C#N)COCc2ccc(C(=O)NCC(=O)Nc3nc(-c4cccc(C56CCOCC5C6)c4)cs3)cc21` (stereo partly drawn) [Compound 305, (R)-N-(2-((4-(3-(3-oxabicyclo[4.1.0]heptan-6-yl)phenyl)thiazol-2-yl)amino)-2-oxoethyl)-4-cyano-4-methylisochromane-6-carboxamide]: on BRM, the “BRM Max % Inhibition” value is more than 95% and the IC50 was less than 0.1 µM. Further, at BRG-1, the half-maximal inhibitory concentration (IC50) was 0.1 to 1 µM and the Emax was more than 95%.

In the case of `C[C@@H]1CN(c2cccc(-c3csc(NC(=O)CNC(=O)c4cccc(C5(C(F)F)CCCO5)c4)n3)c2)C[C@H](C)O1` (stereo partly drawn) [Compound 306, 3-(2-(difluoromethyl)tetrahydrofuran-2-yl)-N-(2-((4-(3-((cis)-2,6-dimethylmorpholino)phenyl)thiazol-2-yl)amino)-2-oxoethyl)benzamide], at BRM, the “BRM Max % Inhibition” value is more than 95% and the IC50 lay in the range of 0.1 to 1 µM. Further, on BRG-1, the IC50 was 1 to 5 µM and the Emax is more than 95%.

Take `COc1cccc(-c2csc(NC(=O)[C@H](C)NC(=O)c3ccc4c(c3)[C@](C)(F)COC4)n2)c1` [Compound 309, (S)-4-fluoro-N-((S)-1-((4-(3-methoxyphenyl)thiazol-2-yl)amino)-1-oxopropan-2-yl)-4-methylisochromane-6-carboxamide]: on BRM, the “BRM Max % Inhibition” value was more than 95% and the IC50 is less than 0.1 µM. Also, on BRG-1, the IC50 is 0.1 to 1 µM and the Emax was more than 95%.

Take `C[C@@H]1CN(c2cccc(-c3csc(NC(=O)CNC(=O)c4ccc5c(c4)C(C)(C#N)CNC5)n3)c2)C[C@H](C)O1` (stereo partly drawn) [Compound 310, 4-cyano-N-(2-((4-(3-((cis)-2,6-dimethylmorpholino)phenyl)thiazol-2-yl)amino)-2-oxoethyl)-4-methyl-1,2,3,4-tetrahydroisoquinoline-6-carboxamide]: at BRM, the “BRM Max % Inhibition” value is more than 95% and the IC50 was less than 0.1 µM. Moreover, on BRG-1, the IC50 lay within 0.1 to 1 µM and the Emax is more than 95%.
